This is an account of results in patent publication US8926082B2, “Optically polymerizable ink jet ink, ink cartridge, and printer” (Ricoh Company, Ltd., priority 2011, dated 2015).

The conditions of series [1]: "negative" or "none": SI value naturally less than 3; cited from earlier work.
Series [2] can be described thus: skin sensitization test by Local Lymph Node Assay (LLNA), Stimulation Index. It is filed as in vivo. To be noted: SI less than 3 = no problem. An excerpt: However, inkjet ink in which such compounds are blended to provide a curing property sufficient for practical use has a relatively high viscosity in comparison with typical optical polymerizable inkjet ink. Therefore, for example, if a desirable high image density is to be obtained by increasing the blend ratio of a pigment, such inkjet ink requires an extra decrease in the viscosity to achieve stable ejection.
The Local Lymph Node Assay (LLNA) method is a skin sensitization test defined as OECD Test Guideline 429 and as described in documents such as an issue of September 2005, Vol. 25, No. 9, p 55, published by CMC Publishing Co., Ltd., when a compound has a Stimulation Index (SI) of less than 3, which is an indicator of the degree of […], the compound is determined to have no problem with regard to the skin sensitization.
The details of A1 to A14, B1 and B2, C1 and C2, and D1 in Tables 1 to 8 are as follows: The value in the parentheses at the end of A1 to A14 is an SI value. “negative” or “none” means evaluation of skin sensitization as “negative” or “none” in the MSDS sheet in which the SI value is naturally less than 3.

As to “Caprolactone-modified dipentaerythritol hexaacrylate [Example A7]”, in series [1], the “evaluation of skin sensitization in the MSDS sheet” value is recorded as “negative”.
Consider `C=C(C)C(=O)OC1CCOC1=O` (stereo not drawn) [Example A4, γ-butylo lactone methacrylate], for which, in series [2], the “SI value (Stimulation Index)” value is listed as 2.1.
On to `C=CC(=O)NCCO` [Example A11, Hydroxyethyl acrylamide], for which, in series [1], the “evaluation of skin sensitization in the MSDS sheet” value is listed as “None”.
